We go through seven compounds from patent publication US20070232595A1, “Method for accelerating cutaneous barrier recovery” (Shiseido Company, Ltd., priority 2006, published 2007).

The test system of test [1] is hairless mice. As to the kind of experiment: Skin barrier recovery (TEWL) after tape stripping with topical application. The class given is in vivo, mouse. The procedure:
Permeability barrier function was evaluated by measurement of transepidermal water loss (TEWL) with an electric water analyzer, as described previously(Denda et al, 1998). For barrier recovery experiments, the flank skin on both sides was subjected to repeated tape stripping until the TEWL reached 7-10 mg per cm^2 per h, as described previously(Denda et al, 1998). As for nNOS-deficient mice and wild-type, the TEWL of the ears was measured over the same sites at 1, 3 and 6 hours after tape stripping. This is because the hair shaving may induce barrier disruption. Therefore, the ears that are hairless parts were selected for TEWL measurements. […] […] The areas were covered with plastic membranes for 15 min and then the membranes were removed. Two points on one flank were measured and 4-8 mice were used to evaluate the effect of each treatment. We always disrupted the barrier between 7:00 AM and 8:00 AM and carried out the measurements of the barrier repair thereafter to avoid the influence of circadian rhythm on the repair rate(Denda and Tsuchiya, 2000). TEWL was measured over the same sites at 1, 3 and 6 hours after barrier disruption. The barrier recovery results are expressed as percent recovery, because of variations from day to day in the extent of barrier disruption. In each animal, the percentage recovery was calculated according to the following formula:

For test [2], the system named is Normal human epithelial keratinocytes (NHEK). As to the kind of experiment: Ca2+ imaging (fura-2) in single cultured keratinocytes. The class given is cell-based. The procedure:
Normal human epithelial keratinocytes (NHEK) were purchased from Kurabo (Osaka, Japan). NHEK were cultured in serum-free keratinocyte growth medium, consisting of Humedia-KB2 (Kurabo, Osaka, Japan) supplemented with bovine pituitary extract (0.4% vol/vol), human recombinant epidermal growth (0.1 μg per mL), insulin (10 μg per mL), and hydrocortisol (0.5 μg per mL). The medium was replaced every 2-3 d. For the electrophysiological experiments, NHEK (passage 1-3 cells) were seeded onto collagen-coated glass coverslips and used within 4 d. Ca^2+ imaging in single keratinocytes
NHEK were grown to approximately 80-100% confluency on collagen-coated cover glass chambers (Nalge Nunc, Naperville, Ill.). Changes in [Ca^2+] in single cells were measured by the fura-2 method as described by Grynkiewicz et al. (1985) with minor modifications(Koizumi et al, 1998). In brief, the culture medium was replaced with a balanced salt solution (BSS) of the following composition (mM): NaCl 150, KCl 5, CaCl21.8, MgCl2 1.2, HEPES 25, NaH2PO4 1.2 and D-glucose 10 (pH 7.4) or calcium-free BSS which had the same composition as the above BSS with 1 mM EGTA and no added CaCl2. Cells were loaded with 5 μM fura-2 acetoxymethylester (fura-2AM, Molecular Probes, Eugene, Oreg.) at room temperature (21-23° C.) in BSS for 45 min, washed with BSS, and incubated for a further 30 min to allow de-esterification of the loaded dye. The cover slip was mounted on an inverted epifluorescence microscope (IX70, TS Olympus, Tokyo, Japan), equipped with a 75 W xenon lamp and band-pass filters of 340 and 380 nm. The image data, recorded by a high-sensivity CCD (charge-coupled-device) camera (ORCA-ER, Hamamatsu Photonics, Hamamatsu, Japan) were evaluated with a Ca^2+ analyzing system (AQUACOSMOS/RATIO, Hamamatsu Photonics). SNAP (300 μM), ODQ (10 μM) and nifedipine (50 μM) were dissolved in the BSS and the cells were exposed to the solution by perfusion. We observed four lots of pooled cells for each treatment. […] Data were represented as the ratio of fluorescence intensities at 340 and 380 nm.

Test [3] concerns hairless mice. As to the kind of experiment: Epidermal hyperplasia induced by barrier disruption (acetone) under low humidity. As to conditions: for epidermal proliferation (number of BrdU-positive cells, DNA synthesis) / epidermal thickness: topical application after acetone treatment under low humidity, compared with acetone treated skin; for epidermal hyperplasia induced by acetone treatment under low environmental humidity: topical application, 1 µM, 48 hours in dry condition. The class given is in vivo, mouse. As to the method: Hairless mice were kept separately in 7.2-liter cages in which the relative humidity was maintained at less than 10% with dry air as described previously(Denda et al, 1998). The temperature was the same in all cases (22-25° C.), and fresh air was circulated 100 times per hour. Animals were kept out of the direct stream of air. During the experiments, the animal's behavior was not restricted. The level of NH3 was always below 1 ppm. Animals were first kept in a dry condition for 48 hours and then the skin on both flanks was treated with acetone-soaked cotton balls, as described previously(Denda et al, 1998). The procedure was terminated when TEWL reached 2.5-3.5 mg per cm^2 per h. Immediately after the barrier disruption, 100 μl of nNOS inhibitor and ODQ aqueous solution (1 μM) was applied on one side of the treated area. Water was applied on the other side. Then the animals were again kept in the dry condition for 48 hours. After the experiments, animals were euthanized with diethylether inhalation and skin samples were taken from the treated areas. One hour before euthanization, 20 μl per g body weight of a 10 mM solution of bromodeoxyuridine (BrdU) was injected intraperitoneally. Untreated control mice were also treated with BrdU at the same time. After fixation with 4% paraformaldehyde, full thickness skin samples were embedded in paraffin, sectioned (4 μm), and processed for hematoxylin and eosin staining. On each section, five areas were selected at random; the thickness of the epidermis was measured with an optical micrometer, and the mean value was calculated. For the assessment of DNA synthesis, the sections were immunostained with anti-BrdU antibodies. On each section, five areas were selected at random from one section; the number of immunostained cells per 1 mm of epidermis was counted and the epidermal thickness was measured with an optical micrometer. The mean value was calculated. Measurements were carried out in an observer-blinded fashion. NO evaluation in hairless mouse epidermis

In a further test the test system is skin of hairless mice. As to the kind of experiment: NO release from skin organ culture after tape stripping. More on the design: species or system mouse. As to conditions: pre-incubation with inhibitor 100 μM; skin organ culture in PBS, 30 min at 37° C. An excerpt:
Four male hairless mice (7-10 wk old) were killed by cervical dislocation under anesthesia and skin samples were taken immediately from both flanks. Subcutaneous fat was removed with a scalpel and the skin samples that contained epidermis and dermis, were cut into squares (1.5×1.5 cm^2). […] of skin from the two flanks of each animal were placed, epidermis side upwards, in separate 35-mm culture dishes kept in an ice/water bath, and one of them was tape-stripped four times. The other piece of skin was not treated. One milliliter of phosphate-buffered saline (PBS) was added to both dishes, which were incubated for 30 min at 37° C. After the incubation, 50 μL aliquots of the PBS were removed. NO released into the PBS was quantified using a total nitric oxide assay kit (Immuno-Biological Laboratories Co., Ltd, Gunma, Japan), according to the manufacturer's instruction.

[4] abbreviates: topical application of 1 μM aqueous solution, 1, 3 and 6 hours after tape stripping, vs water control.

SMILES strings stand for the structures.

Consider `Nc1c[n+](N2CCOCC2)no1.[Cl-]` [SIN, SIN-1 chloride], for which, in the test with hairless mice [1] (setting [4]), the “barrier recovery after tape stripping (percent recovery of TEWL)” value is “delayed the barrier recovery”.
Regarding `O=c1onc2cnc3ccccc3n12` [ODQ, 1H-[1,2,4]oxadiazolo[4,3-a]quinoxalin-1-one], the “barrier recovery after tape stripping (percent recovery of TEWL)” value with hairless mice [1] (setting [4]) is listed as “accelerated the barrier recovery”. In test [2] (300 μM SNAP with 10 μM ODQ or 50 μM nifedipine), the “effect on increase of intracellular calcium induced by SNAP” value is “blocked”. Also, in the test on hairless mice [3], the “epidermal proliferation (number of BrdU-positive cells, DNA synthesis)” value is given as “Significant reductions”; the epidermal thickness result is “Significant reductions”; the “epidermal hyperplasia induced by acetone treatment under low environmental humidity” value is listed as “prevented the hyperplasia”.
Take `CCCNC(=N)NCCC[C@H](N)C(=O)O` [nNOS inhibitor, N^ω-propyl-L-arginine]: the “barrier recovery after tape stripping (percent recovery of TEWL)” value in the test on hairless mice [1] (setting [4]) is reported as “accelerated the barrier repair”. In addition, in the test with skin of hairless mice, the “increase of NO level (release) after tape stripping” value was “blocked”. In addition, in the test with hairless mice [3], the “epidermal proliferation (number of BrdU-positive cells, DNA synthesis)” value is given as “Significant reductions”; the epidermal thickness entry is “Significant reductions”; the “epidermal hyperplasia induced by acetone treatment under low environmental humidity” value was “prevented the epidermal hyperplasia”.
Consider `CC(=O)NC(C(=O)O)C(C)(C)SN=O` (racemic) [SNAP, S-nitroso-N-acetyl-D,L-penicillamine], for which, in the test with hairless mice [1] (topical application of one millimolar solution of SNAP, vs control), the “barrier recovery after tape stripping (percent recovery of TEWL)” value was “delayed skin barrier recovery”. The “intracellular calcium concentration (ratio 340 nm/380 nm, fura-2)” value in test [2] (300 μM SNAP, calcium-containing BSS) is “increased”; in test [2] (SNAP, calcium-free medium) it was “an increase of [Ca^2+] was induced”.
Consider `CSC(=N)N` [iNOS inhibitor, S-methylisothiourea], for which the “barrier recovery after tape stripping (percent recovery of TEWL)” value in the test with hairless mice [1] (setting [4]) was “did not affect the barrier recovery”. Also, the “increase of NO level (release) after tape stripping” value in the test with skin of hairless mice is on record as “did not affect”.
For the compound `O=c1onc2n1-c1cc(Br)ccc1OC2` [NS 2028, 4H-8-bromo-1,2,4-oxadiazolo[3,4-dibenz[b][1,4]oxazin-1-one], the “barrier recovery after tape stripping (percent recovery of TEWL)” value in the test with hairless mice [1] (setting [4]) is “accelerated the barrier recovery”.
Take `COC(=O)[C@@H](N)CCCNC(=N)N[N+](=O)[O-]` [L-NAMA, L-N(G)-nitro-L-arginine methyl ester]: the “barrier recovery after tape stripping (percent recovery of TEWL)” value in the test with hairless mice [1] (setting [4]) is given as “accelerated the barrier repair”.
